Legend:
[1] = Furosemide oxidation by conventional method with octabromo tetrakis(2,6-dichlorophenyl)porphyrin Fe(III)Cl and hydrogen peroxide, with or without imidazole co-catalyst, metabolites by LC/MS-ESI; assay type: in vitro ADME; details: DMSO, H2O2, 24 hours; for furosemide metabolites produced, No Co-Catalyst: control without imidazole; for furosemide metabolites produced, Imidazole Co-Catalyst: with imidazole co-catalyst
Experimental: Furosemide API (12.5 mg, 0.0378 mmol) in DMSO (0.1 M) was added to octabromo tetrakis(2,6-dichlorophenyl)porphyrin Fe(III)Cl (0.6 mg, 0.000378 mmol), followed by imidazole (0.13 mg, 0.00189 mmol). Over a 1 hour period, 50% w/w hydrogen peroxide (6.44 uL, […]) was added dropwise. An additional amount of hydrogen peroxide was added after 2 hours. The reaction was monitored by LC and stopped after 24 hours.
A control reaction was run under the exact parameters as stated above, without the addition of imidazole as a co-catalyst.
Samples analyzed according to parameters in Example 1.

[2] = Ex vivo prediction of drug-to-drug interaction: microwave oxidation of drug mixtures with Octabromo tetrakis(2,6-dichlorophenyl)porphyrin Fe(III)Cl and sodium hypochlorite, metabolites by LC/MS; details: saxagliptin reacted in mixture with Metformin, porphyrin Fe(III)Cl catalyst, NaOCl
Experimental: Metformin and Saxagliptin Mixture Microwave Protocol: Metformin Hydrochloride (8.19 mg, 0.06341 mmol) in 1:0.25 mL acetonitrile:water was reacted with potassium carbonate (10.96 mg, 0.07926) and stirred at 40° C. for 30 minutes in a microwave tube. Saxagliptin API (20.0 mg, 0.06341 mmol) extracted using 40 mL 1:1 methanol:ethanol, filtered and concentrated in vacuo. The resulting solid taken up in 2:0.25 mL acetonitrile:water and transferred to microwave tube. Octabromo tetrakis(2,6-dichlorophenyl)porphyrin Fe(III)Cl (10.21 mg, 0.006341 mmol) then added, followed by sodium hypochlorite (156.6 uL, 0.3171 mmol). Reaction run in the microwave at 80° C. for 30 minutes (CC-03-149A).

SMILES	furosemide metabolites produced, No Co-Catalyst [1]	furosemide metabolites produced, Imidazole Co-Catalyst [1]	Presence of Saxagliptin metabolites [2]
NS(=O)(=O)c1cc2c(cc1Cl)N1CC(=O)C=CC1OC2=O (stereo not shown) [FUR1]	Present	Present	–
NS(=O)(=O)c1cc(C(=O)[O-])c(-[n+]2cccc(O)c2)cc1Cl [FUR2]	Present	Present	–
Nc1cc(Cl)c(S(N)(=O)=O)cc1C(=O)O [FUR3]	Present	Present	–
NS(=O)(=O)c1cc2c(cc1Cl)[N+]1(O)CC(=O)C(O)C(=O)C1OC2=O (stereo not shown) [FUR4]	–	Present	–
NS(=O)(=O)c1cc2c(cc1Cl)[N+]1([O-])CC(=O)C=CC1OC2=O (stereo not shown) [FUR5]	–	Present	–
NS(=O)(=O)c1cc(C(=O)O)c(NCC(=O)CCC(=O)O)cc1Cl [FUR6]	–	Present	–
N#C[C@@H]1C[C@@H]2C[C@@H]2N1C(=O)C(N)C12CC3CC(O)(CC(O)(C3)C1)C2 (stereo partly shown) [Hydroxy-Saxagliptin]	–	–	Not Detected
